The target in test [1] is purified NANOLUC® Luciferase (Oplophorus gracilirostris, UniProt Q9GV45, A31E/A60N/A81I/F95D/I117V/K70R/L54V/L99Q/M102K/N193R/P142E/Q151K/Q38R/Q45L/V71I/Y165I). In kind it is biochemical. The conditions noted are these: for RLU at 100 uM: relative value, furimazine set to 1, purified NanoLuc, initial light output three minutes after substrate addition. The protocol:
Each compound to be screened was dissolved in DMSO (5 mM) and then further diluted to 100 uM in NANO-GLO® Luciferase Assay Buffer. Each diluted substrate was then combined in equal volumes with purified NANOLUC® Luciferase diluted into CO2 independent media+10% FBS. Initial light output for each substrate was measured in a GloMax®-Multi+ luminometer three minutes after substrate addition and then at five minute intervals as a means to determine signal half-life. […] Km was calculated using GraphPad Prism using non linear Michaelis-Menten regression.

Test [2] has as its system Nluc-b2 adrenergic receptor (B2AR). In words: Bioluminescence imaging of Nluc-B2AR in HeLa cells. The note with it: 10 uM substrate, Olympus LV200, FIGS. 4A and 4B. It is filed as cell-based. The protocol:
FIGS. 4A and 4B show the results of imaging of Nluc-B2AR in HeLa cells using furimazine and JRW-0769. HeLa cells were reverse transfected with an expression construct for Nluc-b2 adrenergic receptor (B2AR) and plated into a LabTEKII chambered coverslip (50,000 cells per well in 400 uL medium) and incubated overnight. For imaging, the medium was removed and replaced with CO2-independent medium. Immediately before placing the sample onto the imaging instrument, Furimazine or JRW-0769 was added to the cells at a final concentration of 10 uM. Image acquisition was performed on an Olympus LV200 bioluminescence imager using a 40×/0.95 NA objective with electromultiplying gain set to 400 and an acquisition time of 0.5 sec (Furimazine) and 2.5 sec (JRW-0769).
HeLa cells were reverse transfected with an expression construct for Nluc-b2 adrenergic receptor (B2AR) and plated into a LabTEKII chambered coverslip (50,000 cells per well in 400 uL medium) and incubated overnight. For imaging, the medium was removed and replaced with CO2-independent medium. Immediately before placing the sample onto the imaging instrument, Furimazine or JRW-0769 was added to the cells at a final concentration of 10 uM. […]

Test [3] deals with NanoLuc:KDR. Nature of the test: Cell-based luciferase assay, HEK293 cells expressing NanoLuc:KDR (NanoLuc on the cell surface), ± extracellular inhibitor JRW-0344. The conditions noted are these: 10 μM substrate ± 20 μM inhibitor, FIG. 2A. Here is the method:
(§1) FIGS. 2A-2D show extracellular bioluminescent activity of exemplary compounds in HEK293 cells. HEK293 cells were transfected with two different membrane bound NANOLUC® fusions: 1) NanoLuc:KDR, presenting NanoLuc on the outside of the membrane; 2) KDR:NanoLuc, presenting NanoLuc on the inside of the membrane. The cell impermeable NANOLUC® inhibitor JRW-0344 (disclosed in U.S. Ser. No. 15/192,420 to Duellman et al., “THIENOPYRROLE COMPOUNDS AND USES THEREOF,” filed Jun. 24, 2016), was added to the cells to inhibit extracellular bioluminescent activity.
(§2) HEK293 cells were maintained in DMEM containing 100 IU/ml penicillin, 100 μg/ml streptomycin, and 10% fetal calf serum at 37° C. in 5% CO2. Dulbecco's modified eagle medium (DMEM), Opti-MEM, Penicillin/Streptomycin, and Trypsin-EDTA are purchased from Life Technologies (Carlsbad). Fetal calf serum (FBS) is purchased from HyClone (GE Healthcare). Microtiter plates were purchased from Corning.
(§3) HEK293 cells were transiently transfected with two different integral membrane NanoLuc fusion proteins: 1) NanoLuc:KDR, presenting NanoLuc on the cell surface; 2) KDR:NanoLuc, presenting NanoLuc in the interior of the cell. After 24 hours, transfected cells were collected, resuspended in OptiM at 200,000 cell/ml and plated into wells of white, 96-well plates at 100 μL/well. For luminescent measurements, cells were treated with the indicated substrates at a final concentration of 10 μM or 20 μM in the presence or absence of 20 μM cell impermeable NanoLuc inhibitor JRW-0344. The luminescent signal was analyzed 3 minutes after substrate addition using a GLOMAX® Discover multimode detection plate reader (Promega).

Test [4] deals with KDR:NanoLuc. Nature of the test: Cell-based luciferase assay, HEK293 cells expressing KDR:NanoLuc (NanoLuc in the interior of the cell), ± extracellular inhibitor JRW-0344. The conditions noted are these: HEK293 expressing KDR:Nluc; 10 μM substrate ± 20 μM JRW-0344; FIG. 2C. Here is the method: as §1, §2, §3
For test [5], the system named is KDR:NanoLuc. Nature of the test: Lytic vs. live cell format, HEK293 cells expressing KDR:NanoLuc. The conditions noted are these: digitonin (lytic) or JRW-0344 (live), FIG. 3C. It is filed as cell-based. The protocol:
FIGS. 3A-D show the activities of cell permeable and cell impermeable compounds at various substrate concentrations. HEK293 cells were transfected (1:100 carrier DNA) with the fusion protein KDR:NanoLuc, which presents membrane bound NanoLuc on the inside of the membrane. Cells were then treated with digitonin (for lytic format) or JRW-0344 (for live cell format). Both sets were treated with varying substrate concentrations to give Michaelis-Menten type plots. […] However, substrates that are cell impermeable (or mostly impermeable) show large differences between live and lytic cell formats (FIG. 3C).
HEK293 cells were transfected (1:100 carrier DNA) with the fusion protein KDR:NanoLuc, which presents membrane bound NanoLuc on the inside of the membrane. Cells were then treated with digitonin to lyse the cell membrane (for lytic format) or JRW-0344 (for live cell format) to compare activity of cell permeable and non-cell permeable substrates. Both sets were treated with varying substrate concentrations to give Michaelis-Menten type plots. […] However, substrates that are cell impermeable (or mostly impermeable) show large differences between live and lytic cell formats (FIG. 3C).

purified NANOLUC® Luciferase, sequence (Q9GV45 28-196 with tags or gaps with the stated changes limits assumed): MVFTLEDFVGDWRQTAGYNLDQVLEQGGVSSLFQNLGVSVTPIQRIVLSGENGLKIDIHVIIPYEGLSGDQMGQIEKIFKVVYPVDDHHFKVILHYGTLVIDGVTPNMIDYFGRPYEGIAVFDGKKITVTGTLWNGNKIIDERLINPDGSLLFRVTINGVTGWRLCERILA

As for `O=c1c(Cc2ccco2)nc2c(Cc3ccccc3)[nH]c(-c3ccccc3)cn1-2` [Furimazine, reference compound], the “RLU (absolute light output that is set to 1)” value in test [1] (2.5 ng/mL NanoLuc) was ~1.0×10^7 RLU. The “RLU at 100 uM” value in test [1] is recorded as 1. Besides, the “Localization of the imaged Nluc-B2AR signal” value in test [2] was “intracellular Nluc-B2AR”.

With `O=c1c(Cc2cccc(OCCCCCCS(=O)(=O)[O-])c2)nc2c(Cc3ccccc3)[nH]c(-c3ccccc3)cn1-2.[Na+]` [JRW-0703, sodium 6-(3-((8-benzyl-3-oxo-6-phenyl-3,7-dihydroimidazo[1,2-a]pyrazin-2-yl)methyl)phenoxy)hexane-1-sulfonate], the “RLU at 100 uM” value in test [1] was 0.016. For the same molecule, the “Difference in RLU's in the presence and absence of the extracellular inhibitor” value (from here on “Difference … of the extracellular inhibitor”) in test [3] was “Larger differences in RLU's”. In test [4], the “RLU and effect of the extracellular inhibitor” value was “much dimmer and can be inhibited close to background level”. Further, the “Lowered activity in the live cell format versus lytic format” value in test [5] is 100 fold.

For the molecule `O=c1c(Cc2ccc(OCCCCCCS(=O)(=O)[O-])c(Cl)c2)nc2c(Cc3ccccc3)[nH]c(-c3ccccc3)cn1-2.[Na+]` [JRW-0728, sodium 6-(4-((8-benzyl-3-oxo-6-phenyl-3,7-dihydroimidazo[1,2-a]pyrazin-2-yl)methyl)-2-chlorophenoxy)hexane-1-sulfonate], the “RLU at 100 uM” value in test [1] stood at 0.14. Moreover, in test [3], the “Difference … of the extracellular inhibitor” value is “Larger differences in RLU's”. Moreover, the “RLU and effect of the extracellular inhibitor” value in test [4] is “much dimmer and can be inhibited close to background level”. For the same molecule, in test [5], the “Lowered activity in the live cell format versus lytic format” value was found to be 100 fold.

For the molecule `O=c1c(Cc2ccc(OCCCCCCS(=O)(=O)[O-])c(F)c2)nc2c(Cc3ccccc3)[nH]c(-c3ccccc3)cn1-2.[Na+]` [JRW-0769, sodium 6-(4-((8-benzyl-3-oxo-6-phenyl-3,7-dihydroimidazo[1,2-a]pyrazin-2-yl)methyl)-2-fluorophenoxy)hexane-1-sulfonate], the “RLU at 100 uM” value in test [1] came to 0.1. In addition, in test [3], the “Difference … of the extracellular inhibitor” value is listed as “Larger differences in RLU's”. Besides, the “RLU and effect of the extracellular inhibitor” value in test [4] was “much dimmer and can be inhibited close to background level”. In test [5], the “Lowered activity in the live cell format versus lytic format” value worked out at 100 fold. Moreover, the “Localization of the imaged Nluc-B2AR signal” value in test [2] is on record as “limited to membrane-localized receptor”.

With `NCCCCCCOc1cccc(Cc2nc3c(Cc4ccccc4)[nH]c(-c4ccccc4)cn-3c2=O)c1` [TAK-0039, 2-(3-((6-aminohexyl)oxy)benzyl)-8-benzyl-6-phenylimidazo[1,2-a]pyrazin-3(7H)-one], the “RLU at 100 uM” value in test [1] was 0.0077. For the same molecule, the “Difference … of the extracellular inhibitor” value in test [3] is recorded as “Small differences in RLU's”. Besides, the “RLU and effect of the extracellular inhibitor” value in test [4] was “not affected by the extracellular inhibitor”.
